Measured values published in patent US12605464B2, “Cyclohexane lipidoids for nucleic acid transfection and use thereof” (USTAV ORGANICKE CHEMIE A BIOCHEMIE AV CR V.V.I., priority 2021, dated 2026).

Experiments:
[1] = test system: HepG2; test: Cellular toxicity of LNPs, CellTiterGlo 2.0 cell viability assay; type: cell-based, human; conditions: HepG2, 100 μM total lipid components, 24 hours, normalized to non-transfected cells
Description: (§1) A human cell line derived from embryonic kidney cells expressing SV40 large T antigen (HEK293T), and human hepatocyte carcinoma cell line (HepG2) were cultured in 96-well plates (5×10^4 cells in […] of culture medium per well) in Dulbecco's modified medium (DMEM) supplemented with 10% foetal bovine serum (FBS) at 37° C. in 5% CO2. Cells were transfected with 2 μl of LNPs B07-B12 generated in triplicates in Example 20 (the final total concentration of all lipid components in the well was 20 μM) or 10 μl of LNPs (the final total concentration of all lipid components in the well was 100 μM) and subsequently incubated for 24 hours. The cytotoxicity of LNPs was analyzed in a CellTiterGlo 2.0 cell viability assay (Promega, USA). Cell viability was normalized to non-transfected cells (control).

[2] = test system: HEK293T; test: as above; type: cell-based, human; conditions: 100 μM total lipid components, 24 hours, normalized to non-transfected cells
Description: as §1

CCCCCCCCCCCCN(CCCCCCCCCCCC)CCCNC(=O)c1cc(C(=O)NCCCN(CCCCCCCCCCCC)CCCCCCCCCCCC)cc(C(=O)NCCCN(CCCCCCCCCCCC)CCCCCCCCCCCC)c1 [TT3]
Cytotoxicity expressed as cell viability (%) [1]: 15% | Cytotoxicity expressed as cell viability (%) [2]: 27%
